# Assay results from patent publication US7799814B2, “Thiazole derivatives and use thereof” (Merck Serono S.A., priority 2005, dated 2010).
# Target: Human recombinant GST-PI3Kγ (Homo sapiens, UniProt P48736)
# Experiment: High Throughput PI3K Lipid Kinase Assay (scintillation proximity assay, neomycin-coated SPA beads)
# Format: biochemical
# Details: not given
# Text: a) High Throughput PI3K Lipid Kinase Assay (Binding Assay):
# The efficacy of compounds of the invention in inhibiting the PI3K induced-lipid phosphorylation may be tested in the following binding assay.
# The assay combines the scintillation proximity assay technology (SPA, Amersham) with the capacity of neomycin (a polycationic antibiotic) to bind phospholipids with high affinity and specificity. The Scintillation Proximity Assay is based on the properties of weakly emitting isotopes (such as ^3H, ^125I, ^33P). Coating SPA beads with neomycin allows the detection of phosphorylated lipid substrates after incubation with recombinant PI3K and radioactive ATP in the same well, by capturing the radioactive phospholipids to the SPA beads through their specific binding to neomycin.
# To a 384 wells MTP containing 5 μl of the test compound of Formula (I) (solubilized in 6% DMSO; to yield a concentration of 100, 30, 10, 3, 1, 0.3, 0.1, 0.03, 0.01, 01 μM of the test compound), the following assay components are added. 1) 5 μl (58 ng) of Human recombinant GST-PI3Kγ (in Hepes 40 mM, pH 7.4, DTT 1 mM and ethylenglycol 5%) 2) 10 μl of lipid micelles and 3) 10 μl of Kinase buffer ([^33P]γ ATP. 45 μM/60 nCi, MgCl mM, DTT 1 mM, β Glycerophosphate 1 mM, NVO4 100 μM, Na Cholate 0.3%, in Hepes 40 mM, pH 7.4). After incubation at room temperature for 180 minutes, with gentle agitation, the reaction is stopped by addition of 60 μl of a solution containing 100 μg of neomycin-coated PVT SPA beads in PBS containing ATP 10 mM and EDTA 5 mM. The assay is further incubated at room temperature for 60 minutes with gentle agitation to allow binding of phospholipids to neomycin-SPA beads. After precipitation of the neomycin-coated PVT SPA beads for 5 minutes at 1500×g, radioactive PtdIns(3)P is quantified by scintillation counting in a Wallac MicroBeta™ plate counter.
# The values indicated in Table I below refer to the IC50 (μM) with respect to PI3Kγ, i.e. the amount necessary to achieve 50% inhibition of said target. Said values show a considerable inhibitory potency of thiazole compounds with regard to PI3Kγ.
# Sequence of Human recombinant GST-PI3Kγ (P48736 whole entry): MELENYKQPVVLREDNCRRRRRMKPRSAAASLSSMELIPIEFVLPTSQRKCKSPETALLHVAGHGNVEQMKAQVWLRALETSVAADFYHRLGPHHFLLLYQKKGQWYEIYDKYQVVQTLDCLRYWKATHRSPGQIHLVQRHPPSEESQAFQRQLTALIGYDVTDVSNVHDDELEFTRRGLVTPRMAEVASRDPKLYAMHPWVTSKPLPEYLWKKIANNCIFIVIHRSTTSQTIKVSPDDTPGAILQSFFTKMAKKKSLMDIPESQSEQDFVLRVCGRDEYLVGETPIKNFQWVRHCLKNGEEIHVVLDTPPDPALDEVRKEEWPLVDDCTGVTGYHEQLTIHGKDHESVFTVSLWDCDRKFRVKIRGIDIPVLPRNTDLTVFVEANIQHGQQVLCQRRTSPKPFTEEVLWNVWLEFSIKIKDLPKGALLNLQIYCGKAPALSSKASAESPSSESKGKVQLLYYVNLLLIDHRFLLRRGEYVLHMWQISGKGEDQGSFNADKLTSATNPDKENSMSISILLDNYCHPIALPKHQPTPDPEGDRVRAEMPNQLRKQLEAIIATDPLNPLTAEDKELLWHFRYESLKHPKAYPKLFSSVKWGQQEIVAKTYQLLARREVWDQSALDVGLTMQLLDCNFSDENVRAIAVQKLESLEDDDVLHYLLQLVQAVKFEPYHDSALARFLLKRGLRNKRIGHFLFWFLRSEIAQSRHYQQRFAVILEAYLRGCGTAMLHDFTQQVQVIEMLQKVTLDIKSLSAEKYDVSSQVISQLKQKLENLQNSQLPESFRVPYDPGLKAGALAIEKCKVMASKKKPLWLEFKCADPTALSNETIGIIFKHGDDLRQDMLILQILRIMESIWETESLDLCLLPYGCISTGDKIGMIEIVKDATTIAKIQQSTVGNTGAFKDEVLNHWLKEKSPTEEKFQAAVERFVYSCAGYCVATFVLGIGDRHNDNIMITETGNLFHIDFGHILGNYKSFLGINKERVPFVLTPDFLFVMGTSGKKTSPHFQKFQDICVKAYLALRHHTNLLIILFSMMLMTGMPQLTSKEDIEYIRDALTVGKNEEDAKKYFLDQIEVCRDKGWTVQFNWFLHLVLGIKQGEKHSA
row,Compound,IC50 [µM]
1,"CC(=O)Nc1nc(C)c(-c2csc(C(=O)NCCCN(C)C)n2)s1 [Example 10, 2′-(Acetylamino)-N-[3-(dimethylamino)propyl]-4′-methyl-4,5′-bi-1,3-thiazole-2-carboxamide]",2.2
2,"CC(=O)Nc1nc(C)c(-c2csc(C(=O)Nc3nnn[nH]3)n2)s1 [Example 13, 2′-(acetylamino)-4′-methyl-N-1H-tetrazol-5-yl-4,5′-bi-1,3-thiazole-2-carboxamide]",0.013
3,"CC(=O)Nc1nc(C)c(-c2csc(Cc3nnn[nH]3)n2)s1 [Example 23, N-[4′-methyl-2-(2H-tetrazol-5-ylmethyl)-4,5′-bi-1,3-thiazol-2′-yl]acetamide]",0.328
4,"CC(=O)Nc1nc(C)c(-c2csc(C(=O)Nc3cccc(-c4nnc(N)s4)c3)n2)s1 [Example 25, 2′-(acetylamino)-N-[3-(5-amino-1,3,4-thiadiazol-2-yl)phenyl]-4′-methyl-4,5′-bi-1,3-thiazole-2-carboxamide]",1.54
5,"CCOC(=O)c1nc(-c2sc(Nc3cnccn3)nc2C)cs1 [Example 54, Ethyl 4′-methyl-2′-(pyrazin-2-ylamino)-4,5′-bi-1,3-thiazole-2-carboxylate]",1.42

# Continued, values first:
row,IC50 [µM],Compound
1,0.87,"CCOC(=O)c1nc(-c2sc(NC(C)=O)nc2C)cs1 [Example 1, Ethyl 2′-(acetylamino)-4′-methyl-4,5′-bi-1,3-thiazole-2-carboxylate]"
2,0.795,"COCCNC(=O)Nc1nc(C)c(-c2csc(C(=O)N3CCOCC3)n2)s1 [Example 36, N-(2-methoxyethyl)-N′-[4′-methyl-2-(morpholin-4-ylcarbonyl)-4,5′-bi-1,3-thiazol-2′-yl]urea]"
3,0.601,"CC(=O)Nc1nc(C)c(-c2csc(C(=O)N3CCN(C)CC3)n2)s1 [Example 9, N-{4′-methyl-2-[(4-methylpiperazin-1-yl)carbonyl]-4,5′-bi-1,3-thiazol-2′-yl}acetamide]"
4,0.494,"CC(=O)Nc1nc(C)c(-c2csc(C(=O)O)n2)s1 [Example 4, 2′-(Acetylamino)-4′-methyl-4,5′-bi-1,3-thiazole-2-carboxylic acid]"
5,0.355,"CC(=O)Nc1nc(C)c(-c2csc(C(=O)NCC3CCCO3)n2)s1 (stereo not shown) [Example 6, 2′-(Acetylamino)-4′-methyl-N-(tetrahydrofuran-2-ylmethyl)-4,5′-bi-1,3-thiazole-2-carboxamide]"
6,0.186,"CC(=O)Nc1nc(C)c(-c2csc(C(=O)N3CCOCC3)n2)s1 [Example 8, N-[4′-methyl-2-(morpholin-4-ylcarbonyl)-4,5′-bi-1,3-thiazol-2′-yl]acetamide]"

# Tested on: Akt/PKB phosphorylation in Raw 264-7 macrophages
# Experiment: Cell based ELISA to monitor PI3K inhibition: Akt/PKB phosphorylation in macrophages after stimulation with Complement 5a
# Details: Mus musculus, RAW264.7, 50 nM Complement 5a stimulation, phospho Serine 473 Akt, read-out: Cell Assay (P-Akt, Elisa) IC50
# Experimental: b) Cell Based ELISA to Monitor PI3K Inhibition:
# The efficacy of compounds of the invention in inhibiting the PI3K induced Akt/PKB phosphorylation may be tested in the following cell based assay.
# Measurement of Akt/PKB phosphorylation in macrophages after stimulation with Complement 5a: Raw 264: Raw 264-7 macrophages (cultured in DMEM-F12 medium containing 10% Fetal Calf serum and antibiotics) are plated at 20'000 cells/well in a 96 MTP 24 h before cell stimulation. Prior to the stimulation with 50 nM of Complement 5a during 5 minutes, Cells are serum starved for 2 h, and pretreated with inhibitors for 20 minutes. After stimulation cells are fixed in 4% formaldehyde for 20 minutes and washed 3 times in PBS containing 1% Triton X-100 (PBS/Triton). […] Next, phosphorylated Akt/PKB is detected by an overnight incubation at 4° C. with primary antibody (anti phospho Serine 473 Akt IHC, Cell Signaling) diluted 800-fold in PBS/Triton, containing 5% bovine serum albumin (BSA). After 3 washes in PBS/Triton, cells are incubated for 60 minutes with a peroxidase conjugated goat-anti-rabbit secondary antibody ( 1/400 dilution in PBS/Triton, containing 5% BSA), washed 3 times in PBS/Triton, and 2 times in PBS and further incubated in 100 μl of luminescent substrate reagent solution (Pierce) for 2 minutes, followed by the reading (1 s/well). […]
row,Compound,IC50 [µM]
1,"C=CCNC(=O)c1nc(-c2sc(NC(C)=O)nc2C)cs1 [Example 2, 2′-(Acetylamino)-N-allyl-4′-methyl-4,5′-bi-1,3-thiazole-2-carboxamide]",0.71
2,"CC(=O)Nc1nc(C)c(-c2csc(C(=O)N3CCOCC3)n2)s1 [Example 8, N-[4′-methyl-2-(morpholin-4-ylcarbonyl)-4,5′-bi-1,3-thiazol-2′-yl]acetamide]",0.91
